Experimental data: ChEMBL document CHEMBL1125586, “Novel thiophene-, pyrrole-, furan-, and benzenecarboxamidotetrazoles as potential antiallergy agents” (J Med Chem, 1991)
In brackets after ≈: the same amount, converted by molar mass.

Legend:
physchem [1] = settings: buffer, pH 7.4
Description: Log P value was determined at pH 7.4 using correlation (HPLC) method.

Homo sapiens [2] = organism: Homo sapiens; experiment: cells
Description: Compound was tested for the concentration to inhibit 50% of anti-IgE-stimulated histamine release from human basophils.

Homo sapiens [3] = organism: Homo sapiens; experiment: cells; remark: listed apart in the source
Description: Percent inhibition of histamine release from human basophils at a concentration of 10 uM.

physchem [4] = settings: buffer, pH 7.4; remark: listed apart in the source
Description: Solubility was determined at pH 7.4

Homo sapiens [5] = organism: Homo sapiens; experiment: cells; remark: listed apart in the source
Description: Percent inhibition of histamine release from human basophils at a concentration of 33 uM.

SMILES | chromatographic logD (physchem [1]) | IC50 (Homo sapiens [2]) | inhibition at 10 µM (Homo sapiens [3]) | solubility (physchem [4]) | inhibition at 33 µM (Homo sapiens [5])
COc1ccc2c(c1)c1oc(C(=O)Nc3nn[nH]n3)c(OC)c1n2-c1ccccc1 | 2.8 | 8.5 µM | 66% | < 1 µg/mL | 91%
CC(C)Oc1c(C(=O)Nc2nn[nH]n2)sc(C(C)C)c1Br | – | – | < 25% | – | < 25%
Cc1sc(C(=O)Nc2nn[nH]n2)c(OC(C)C)c1OC(C)C | – | – | < 25% | – | < 25%
CC(C)Oc1c(Br)c(Br)n(Cc2ccccc2)c1C(=O)Nc1nn[nH]n1 | – | – | < 25% | – | < 25%
CCOc1c(C(=O)Nc2nn[nH]n2)sc(C)c1Br | – | 5 µM | 77% | – | 100%
COc1ccc(C(=O)Nc2nn[nH]n2)c(OC(C)C)c1Br | – | – | < 25% | – | 60%
CC(C)Oc1c(C(=O)Nc2nn[nH]n2)sc(-c2ccccc2)c1Br | – | – | < 25% | – | < 25%
CC(C)Oc1c(Br)c(Br)n(C)c1C(=O)Nc1nn[nH]n1 | 2.52 | 25 µM | 37% | 1900 µg/mL (≈ 4.66 mM) | 69%
CC(C)Oc1c(Br)csc1C(=O)Nc1nn[nH]n1 | – | – | 30% | – | 47%
COc1ccc(C(=O)Nc2nn[nH]n2)c(OC(C)C)c1 | – | – | < 25% | – | 41%
COc1ccc2c(c1)c(OC(C)C)c(C(=O)Nc1nn[nH]n1)n2-c1ccccc1 | 2.66 | – | 46% | 70 µg/mL (≈ 0.178 mM) | 82%
COc1sc(C(=O)Nc2nn[nH]n2)c(OC(C)C)c1Br | 1.35 | 2 µM | 92% | 1900 µg/mL (≈ 5.25 mM) | 95%
Cc1cc(OC(C)C)c(C(=O)Nc2nn[nH]n2)s1 | – | – | < 25% | – | < 25%
Cc1sc(C(=O)Nc2nn[nH]n2)c(OC(C)C)c1C(C)C | – | – | < 25% | – | < 25%
Cc1sc(C(=O)Nc2nn[nH]n2)c(OC(C)C)c1Br | 1.72 | 2 µM | 85% | 3300 µg/mL (≈ 9.53 mM) | 97%
COc1ccc(C(=O)Nc2nn[nH]n2)c(OC(C)C)c1I | 1.17 | 10 µM | 51% | – | 73%
COc1ccc2sc(C(=O)Nc3nnn[nH]3)c(OC(C)C)c2c1 | 1.78 | 1.1 µM | 95% | 1840 µg/mL (≈ 5.52 mM) | 97%
Cc1sc(C(=O)Nc2nn[nH]n2)c(SC(C)C)c1Br | – | 5 µM | 74% | – | 90%
CC(C)Oc1c(Br)c(Br)n(-c2ccccc2)c1C(=O)Nc1nn[nH]n1 | – | – | < 25% | – | < 25%
Cc1sc(C(=O)Nc2nn[nH]n2)c(OC(C)C)c1Cl | – | 8 µM | 55% | – | 88%
COc1c(Br)cc(C(=O)Nc2nn[nH]n2)c(OC(C)C)c1Br | – | – | < 25% | – | 28%
CCCc1c2oc(C(=O)O)cc(=O)c2cc2c(=O)cc(C(=O)O)n(CC)c12 [NEDOCROMIL] | – | – | < 25% | – | < 25%
CC(C)Oc1c(C(=O)Nc2nn[nH]n2)[nH]c(Br)c1Br | – | – | < 25% | – | < 25%
Cc1sc(C(=O)Nc2nn[nH]n2)c(OC(C)C)c1C | – | – | < 25% | – | < 25%
Cc1sc(C(=O)Nc2nn[nH]n2)c(OCc2ccccc2)c1Br | – | 5 µM | 68% | – | 91%
CC(C)Sc1c(C(=O)Nc2nn[nH]n2)oc(Br)c1Br | – | – | < 25% | – | < 25%
COc1c(C(=O)Nc2nn[nH]n2)sc(C)c1Br | – | – | < 25% | – | 53%
COc1ccc(C(=O)Nc2nn[nH]n2)c(OC(C)C)c1[Si](C)(C)C | – | – | < 25% | – | < 25%
